In ChEMBL document CHEMBL1201862, “PubChem BioAssay data set” (2004):
Calls of active or inactive are those of the source.

Tests used:
[1] = Luminescence Cell-Based Dose Retest to Confirm Inhibitors of Cancer Stem Cells. [Related pubchem assays (depositor defined):AID2717, AID2721]; type: functional; conditions: Homo sapiens
[2] = cytotoxicity in HMLE control line with eGFP shRNA, dose response, counter-screen for HMLE_sh_ECad selective toxicity project, cell-based, HMLE_sh_eGFP, luminescence (AID 463074); type: functional, Homo sapiens;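 also: HMLE human mammary epithelial cells expressing control shRNA against eGFP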
[3] = target: Delta-type opioid receptor (Homo sapiens, UniProt P41143); assay: Counterscreen for agonists of heterodimerization of the mu 1 (OPRM1) and delta 1 (OPRD1) opioid receptors: Luminescence-based cell-based high throughput dose response assay to identify agonists of OPRD1 homodimerization. [Related pubchem assays (depositor defined):AID504326, AID504355, AID504692, AID504904, AID504905]; type: functional
Mu-type opioid receptor = Mu-type opioid receptor (Homo sapiens, UniProt P35372); assay: Counterscreen for agonists of heterodimerization of the mu 1 (OPRM1) and delta 1 (OPRD1) opioid receptors: Luminescence-based cell-based high throughput dose response assay to identify agonists of OPRM1 homodimerization.; type: functional;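 also: U2OS cells expressing OPRM1 and beta-arrestin as split beta-galactosidase partners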
[4] = target: 5-hydroxytryptamine receptor 5A (Homo sapiens, UniProt P47898); assay: Counterscreen for agonists of OPRM1-OPRD1 heterodimerization: luminescence-based cell-based high throughput dose response assay to identify agonists of 5-hydroxytryptamine (serotonin) 5A receptor (HTR5A). [Related pubchem assays (depositor defined):AID504326, AID504355, AID504692, AID504904, AID504905]; type: functional
[5] = target: T1, High affinity choline transporter 1 (Homo sapiens, UniProt Q9GZV3); assay: CHT inhibitors, dose response, cell-based, 5-point CRC, membrane potential dye (AID 504840); type: functional
T1 sequence (Q9GZV3 whole entry): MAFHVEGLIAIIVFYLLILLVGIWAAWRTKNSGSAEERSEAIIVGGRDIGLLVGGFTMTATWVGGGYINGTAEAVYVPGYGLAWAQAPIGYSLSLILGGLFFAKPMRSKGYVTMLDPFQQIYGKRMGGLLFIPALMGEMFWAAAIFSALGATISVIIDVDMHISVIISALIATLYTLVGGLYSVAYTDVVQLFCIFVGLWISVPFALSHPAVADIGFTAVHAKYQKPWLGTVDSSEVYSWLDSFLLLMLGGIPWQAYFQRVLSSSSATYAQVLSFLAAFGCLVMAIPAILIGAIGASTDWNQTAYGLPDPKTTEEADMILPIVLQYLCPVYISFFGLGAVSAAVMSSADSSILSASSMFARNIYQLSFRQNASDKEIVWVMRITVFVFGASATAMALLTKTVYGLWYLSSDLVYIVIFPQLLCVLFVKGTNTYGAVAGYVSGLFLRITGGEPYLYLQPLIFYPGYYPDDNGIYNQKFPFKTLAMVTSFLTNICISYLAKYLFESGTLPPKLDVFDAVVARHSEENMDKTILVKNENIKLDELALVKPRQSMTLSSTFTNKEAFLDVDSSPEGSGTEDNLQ

[6] = target: T2, Microphthalmia-associated transcription factor (Homo sapiens, UniProt O75030); assay: TRPM1 promoter luciferase signal decrease, dose response, MITF inhibitor project, cell-based, SK-MEL-5, cherry-picked, set 3 (AID 493073); type: functional
T2 sequence (O75030 whole entry): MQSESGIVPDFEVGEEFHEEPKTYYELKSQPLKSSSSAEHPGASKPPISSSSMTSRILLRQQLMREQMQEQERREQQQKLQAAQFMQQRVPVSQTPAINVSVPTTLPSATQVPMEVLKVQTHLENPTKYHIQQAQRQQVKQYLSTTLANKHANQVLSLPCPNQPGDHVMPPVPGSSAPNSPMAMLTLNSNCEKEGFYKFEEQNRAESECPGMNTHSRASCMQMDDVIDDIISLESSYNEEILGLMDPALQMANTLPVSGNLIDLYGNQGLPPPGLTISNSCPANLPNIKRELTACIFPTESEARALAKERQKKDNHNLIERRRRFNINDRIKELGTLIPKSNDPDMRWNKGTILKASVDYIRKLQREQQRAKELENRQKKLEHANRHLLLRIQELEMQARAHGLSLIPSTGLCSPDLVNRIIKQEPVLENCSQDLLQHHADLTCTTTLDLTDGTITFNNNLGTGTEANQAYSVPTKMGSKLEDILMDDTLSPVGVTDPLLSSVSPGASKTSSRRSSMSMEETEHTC

Cytochrome P450 1A2 = target: T3, Cytochrome P450 1A2 (Homo sapiens, UniProt P05177);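 also: PubChem cytochrome P450 panel assay, CYP1A2 panel member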
T3 sequence (P05177 whole entry): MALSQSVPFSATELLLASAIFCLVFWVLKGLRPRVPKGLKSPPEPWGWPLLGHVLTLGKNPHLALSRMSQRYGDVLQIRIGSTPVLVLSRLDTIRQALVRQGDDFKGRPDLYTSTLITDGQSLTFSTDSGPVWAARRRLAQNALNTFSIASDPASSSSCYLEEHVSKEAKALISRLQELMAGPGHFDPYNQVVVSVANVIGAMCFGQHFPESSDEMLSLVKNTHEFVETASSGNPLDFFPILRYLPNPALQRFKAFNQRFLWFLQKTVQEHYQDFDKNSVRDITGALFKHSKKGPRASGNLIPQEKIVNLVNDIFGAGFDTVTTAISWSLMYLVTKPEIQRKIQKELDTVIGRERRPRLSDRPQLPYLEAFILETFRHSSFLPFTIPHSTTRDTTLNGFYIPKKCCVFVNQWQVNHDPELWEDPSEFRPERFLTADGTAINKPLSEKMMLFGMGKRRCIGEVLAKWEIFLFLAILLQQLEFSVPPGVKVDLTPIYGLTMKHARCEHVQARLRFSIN

Cytochrome P450 2C9 = Cytochrome P450 2C9 (Homo sapiens, UniProt P11712)
[7] = Luminescence Cell-Based Dose Confirmation HTS to Identify Activators of 5'UTR Stem-Loop Driven Alpha-Synuclein mRNA Translation in H4 Neuroglioblastoma Cells. [Related pubchem assays: 1829 (Project Summary), 1814 (Primary HTS)]; type: functional
[8] = Luminescence Cell-Based Dose Response HTS to Identify Activators of Luciferase Translation or Activity in H4 […] Cells. [Related pubchem assays: 1829 (Project Summary), 1814 (Primary HTS)]; type: functional
H4 = assay: Luminescence Cell-Based Dose Response HTS to Identify Activators of 5'UTR Stem-Loop Driven Prion Protein mRNA Translation in H4 Neuroglioblastoma Cells. [Related pubchem assays: 1829 (Project Summary), 1814 (Primary HTS)]; type: functional; conditions: Homo sapiens
Cytochrome P450 2C19 = Cytochrome P450 2C19 (Homo sapiens, UniProt P33261); assay: Cytochrome panel assay with activity outcomes. Panel member name: p450-cyp2c19 Compounds with AC50 equal or less than 10 uM are considered active; type: functional
[9] = target: Dual specificity tyrosine-phosphorylation-regulated kinase 1A (Rattus norvegicus, UniProt Q63470); type: biochemical, Homo sapiens
[10] = tested on: Streptococcus sp. 'group A'; assay: growth inhibition of control SK(-) GAS strain, dose response, counter-screen for streptokinase expression inhibitor project, luminescence, kanamycin, BacTiterGlo, confirmation (AID 1900); type: functional, organism-based
Streptokinase A = target: T4, Streptokinase A (Streptococcus pyogenes serotype M1, UniProt P10520); assay: S. pyogenes streptokinase expression inhibitors, potency, dose response, plasminogen activation absorbance, OD405 (AID 1914); type: functional, Streptococcus pyogenes M1 GAS;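 also: secreted streptokinase activity via plasminogen activation per viability signal from cell pellet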
T4 sequence (P10520 whole entry): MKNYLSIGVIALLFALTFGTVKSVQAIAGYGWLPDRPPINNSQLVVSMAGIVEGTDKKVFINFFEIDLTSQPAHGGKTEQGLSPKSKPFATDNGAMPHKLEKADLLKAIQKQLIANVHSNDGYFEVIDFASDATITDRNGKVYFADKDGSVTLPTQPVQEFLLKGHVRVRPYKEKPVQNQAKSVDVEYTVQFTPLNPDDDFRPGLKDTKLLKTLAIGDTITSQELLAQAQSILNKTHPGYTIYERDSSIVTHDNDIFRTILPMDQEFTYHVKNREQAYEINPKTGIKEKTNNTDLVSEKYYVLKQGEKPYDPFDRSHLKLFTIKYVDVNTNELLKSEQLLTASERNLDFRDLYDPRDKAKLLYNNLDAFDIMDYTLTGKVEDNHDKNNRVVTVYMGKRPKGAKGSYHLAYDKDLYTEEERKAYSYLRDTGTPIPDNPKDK

Streptococcus = assay: Group A Streptococcus viability loss, dose response, counter-screen for streptokinase expression inhibitor project, luminescence, BacTiterGlo (AID 1915); type: functional, organism-based;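 also: potency for reduction of bacterial viability or growth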
[11] = target: Glucose-6-phosphate 1-dehydrogenase (Homo sapiens, UniProt P11413); assay: human G6PD enzyme inhibitors, dose response, selectivity assay for P. falciparum G6PD inhibitor project, biochemical, fluorescence (AID 504792); type: functional
[12] = Shn3 3'UTR reporter inhibitors, dose response, cell-based, Clone20 osteoblasts, firefly luciferase, cherry-picked (AID 624132); type: functional;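 also: firefly luciferase luminescence from reporter carrying the Shn3 3'UTR in osteoblasts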
[13] = HepG2 cell cytotoxicity, dose response, cytotoxicity control for Shn3 inhibitor project, CellTiter-Glo, cherry-picked (AID 624134); type: functional, cell-based
[14] = control 3'UTR Renilla luciferase suppression, dose response, counter-screen for Shn3 inhibitor project, cell-based, Clone20-Shn3RL, cherry-picked (AID 624133); type: functional
Large T antigen = Large T antigen (Simian virus 40, UniProt P03070); type: functional, Betapolyomavirus macacae;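 also: Confirmatory-stage PubChem screen for compounds that inhibit SV40 T antigen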
[15] = target: T5, Rac GTPase-activating protein 1 (Homo sapiens, UniProt Q9H0H5); assay: MgcRacGAP GTPase-activating activity inhibitors, confirmation, biochemical, ADP Hunter fluorescence, primary and confirmatory (AID 624330); type: functional
T5 sequence (Q9H0H5 whole entry): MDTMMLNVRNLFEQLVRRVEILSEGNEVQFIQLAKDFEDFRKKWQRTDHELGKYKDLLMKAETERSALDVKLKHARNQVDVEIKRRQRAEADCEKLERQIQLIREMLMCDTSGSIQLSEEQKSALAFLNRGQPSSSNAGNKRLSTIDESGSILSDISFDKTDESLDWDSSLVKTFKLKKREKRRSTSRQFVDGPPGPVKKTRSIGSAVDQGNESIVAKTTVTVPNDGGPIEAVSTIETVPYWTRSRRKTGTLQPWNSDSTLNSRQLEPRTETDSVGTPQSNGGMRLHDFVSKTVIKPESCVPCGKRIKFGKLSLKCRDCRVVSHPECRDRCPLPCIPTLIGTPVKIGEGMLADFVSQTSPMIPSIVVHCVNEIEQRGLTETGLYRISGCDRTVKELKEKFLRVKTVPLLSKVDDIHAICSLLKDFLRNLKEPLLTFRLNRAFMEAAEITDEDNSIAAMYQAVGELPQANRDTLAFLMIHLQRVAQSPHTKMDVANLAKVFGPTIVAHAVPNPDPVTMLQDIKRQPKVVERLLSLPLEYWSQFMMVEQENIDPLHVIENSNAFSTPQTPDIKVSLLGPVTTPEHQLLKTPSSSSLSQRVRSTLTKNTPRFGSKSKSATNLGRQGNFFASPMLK

Chain of Delta-type opioid receptor (P41143 whole entry): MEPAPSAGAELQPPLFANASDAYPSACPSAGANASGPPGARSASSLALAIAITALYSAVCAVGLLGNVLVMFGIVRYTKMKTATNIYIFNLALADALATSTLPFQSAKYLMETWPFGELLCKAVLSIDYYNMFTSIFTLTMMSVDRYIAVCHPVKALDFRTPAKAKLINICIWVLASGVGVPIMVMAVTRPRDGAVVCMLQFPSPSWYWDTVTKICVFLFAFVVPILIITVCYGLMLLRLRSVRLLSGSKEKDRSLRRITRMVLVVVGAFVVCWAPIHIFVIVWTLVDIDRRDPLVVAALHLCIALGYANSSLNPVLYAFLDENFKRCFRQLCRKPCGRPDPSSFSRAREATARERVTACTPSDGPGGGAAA
Chain of Mu-type opioid receptor (P35372 whole entry): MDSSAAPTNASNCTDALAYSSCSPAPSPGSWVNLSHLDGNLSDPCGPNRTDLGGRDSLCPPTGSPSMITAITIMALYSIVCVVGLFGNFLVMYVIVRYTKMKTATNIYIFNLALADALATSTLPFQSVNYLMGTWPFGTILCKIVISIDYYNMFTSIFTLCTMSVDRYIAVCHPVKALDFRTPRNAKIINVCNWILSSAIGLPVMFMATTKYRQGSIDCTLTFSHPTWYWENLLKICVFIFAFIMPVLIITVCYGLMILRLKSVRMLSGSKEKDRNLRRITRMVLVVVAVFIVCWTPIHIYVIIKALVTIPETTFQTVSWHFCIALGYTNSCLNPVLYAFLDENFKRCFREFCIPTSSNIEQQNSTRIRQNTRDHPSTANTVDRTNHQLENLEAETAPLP
Chain of 5-hydroxytryptamine receptor 5A (P47898 whole entry): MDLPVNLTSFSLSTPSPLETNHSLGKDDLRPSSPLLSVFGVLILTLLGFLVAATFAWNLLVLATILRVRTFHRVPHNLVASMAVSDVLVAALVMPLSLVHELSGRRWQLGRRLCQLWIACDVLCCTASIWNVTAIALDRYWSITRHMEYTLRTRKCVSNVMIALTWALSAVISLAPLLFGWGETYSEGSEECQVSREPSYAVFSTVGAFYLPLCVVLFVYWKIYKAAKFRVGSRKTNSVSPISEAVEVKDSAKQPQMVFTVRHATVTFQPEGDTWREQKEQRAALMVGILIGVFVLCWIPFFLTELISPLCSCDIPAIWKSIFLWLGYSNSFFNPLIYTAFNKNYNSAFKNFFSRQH
Chain of Cytochrome P450 2C19 (P33261 whole entry): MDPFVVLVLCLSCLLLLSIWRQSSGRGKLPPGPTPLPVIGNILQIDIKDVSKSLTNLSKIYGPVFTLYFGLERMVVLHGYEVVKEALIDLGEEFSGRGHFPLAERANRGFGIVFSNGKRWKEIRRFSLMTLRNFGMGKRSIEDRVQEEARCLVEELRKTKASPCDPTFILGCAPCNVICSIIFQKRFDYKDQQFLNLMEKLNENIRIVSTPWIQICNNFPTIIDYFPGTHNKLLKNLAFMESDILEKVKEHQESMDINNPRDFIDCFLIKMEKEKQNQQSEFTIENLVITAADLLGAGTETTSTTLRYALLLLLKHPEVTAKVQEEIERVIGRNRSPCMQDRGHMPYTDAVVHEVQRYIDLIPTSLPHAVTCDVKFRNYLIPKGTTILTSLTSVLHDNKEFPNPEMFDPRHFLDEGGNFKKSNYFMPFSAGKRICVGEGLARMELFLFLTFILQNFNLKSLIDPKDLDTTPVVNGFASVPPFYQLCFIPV
Chain of Glucose-6-phosphate 1-dehydrogenase (P11413 whole entry): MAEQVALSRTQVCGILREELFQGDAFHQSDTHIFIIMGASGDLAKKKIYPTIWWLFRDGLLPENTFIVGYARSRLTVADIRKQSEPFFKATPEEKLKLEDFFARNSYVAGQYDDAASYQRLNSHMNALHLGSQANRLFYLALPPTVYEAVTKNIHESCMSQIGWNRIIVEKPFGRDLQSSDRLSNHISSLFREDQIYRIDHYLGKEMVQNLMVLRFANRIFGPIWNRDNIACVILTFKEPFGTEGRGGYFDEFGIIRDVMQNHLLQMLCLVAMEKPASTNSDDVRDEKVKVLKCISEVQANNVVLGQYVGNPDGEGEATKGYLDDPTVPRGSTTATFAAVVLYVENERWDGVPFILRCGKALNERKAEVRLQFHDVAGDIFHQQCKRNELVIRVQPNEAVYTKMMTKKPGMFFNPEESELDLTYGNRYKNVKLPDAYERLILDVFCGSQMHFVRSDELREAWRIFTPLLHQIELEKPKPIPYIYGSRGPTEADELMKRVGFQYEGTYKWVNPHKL
Chain of Large T antigen (P03070 whole entry): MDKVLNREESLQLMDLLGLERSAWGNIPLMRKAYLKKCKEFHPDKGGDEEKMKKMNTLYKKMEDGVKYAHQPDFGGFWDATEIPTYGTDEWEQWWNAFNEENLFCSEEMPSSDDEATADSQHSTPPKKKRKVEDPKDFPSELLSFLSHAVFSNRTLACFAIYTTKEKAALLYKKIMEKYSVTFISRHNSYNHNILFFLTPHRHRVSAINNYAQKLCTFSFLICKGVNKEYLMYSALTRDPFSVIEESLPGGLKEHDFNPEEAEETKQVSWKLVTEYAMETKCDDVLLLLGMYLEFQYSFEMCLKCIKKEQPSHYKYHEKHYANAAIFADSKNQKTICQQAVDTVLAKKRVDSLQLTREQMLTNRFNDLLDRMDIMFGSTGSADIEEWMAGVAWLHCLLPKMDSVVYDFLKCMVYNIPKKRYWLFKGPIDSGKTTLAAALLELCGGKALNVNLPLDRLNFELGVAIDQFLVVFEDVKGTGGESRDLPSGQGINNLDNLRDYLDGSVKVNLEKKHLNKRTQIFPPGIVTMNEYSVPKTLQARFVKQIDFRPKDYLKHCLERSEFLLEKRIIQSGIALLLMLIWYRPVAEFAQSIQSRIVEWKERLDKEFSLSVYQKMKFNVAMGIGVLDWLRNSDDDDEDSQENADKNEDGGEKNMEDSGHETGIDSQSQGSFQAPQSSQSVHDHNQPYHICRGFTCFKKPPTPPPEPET
Chain of Cytochrome P450 2C9 (P11712 whole entry): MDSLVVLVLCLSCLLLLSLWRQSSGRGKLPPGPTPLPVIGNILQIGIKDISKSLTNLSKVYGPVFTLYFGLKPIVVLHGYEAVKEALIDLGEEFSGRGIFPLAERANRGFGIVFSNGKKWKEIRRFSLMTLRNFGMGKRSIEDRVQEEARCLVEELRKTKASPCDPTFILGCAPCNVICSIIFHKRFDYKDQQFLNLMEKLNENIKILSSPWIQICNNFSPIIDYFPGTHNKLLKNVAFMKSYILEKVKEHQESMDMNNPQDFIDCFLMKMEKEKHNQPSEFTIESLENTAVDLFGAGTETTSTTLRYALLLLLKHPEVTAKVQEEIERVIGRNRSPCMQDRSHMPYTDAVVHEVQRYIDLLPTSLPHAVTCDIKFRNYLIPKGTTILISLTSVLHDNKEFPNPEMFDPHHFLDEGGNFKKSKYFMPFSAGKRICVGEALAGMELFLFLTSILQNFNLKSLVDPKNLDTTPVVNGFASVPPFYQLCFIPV

SMILES: Cc1cc(C)nc(-n2ncc3c2CC(c2cccc(Cl)c2)CC3=O)n1 (configuration not stated)
- AC50 [1]: 29.1 µM (active)
- AC50 [2]: 46.8 µM (active)

SMILES: Brc1ccc(NC2=Nc3ccccc3CC2)cc1
- EC50 [3]: > 92.5 µM (inactive)
- EC50 (Mu-type opioid receptor): 52.1 µM (inactive)
- EC50 [4]: > 92.5 µM (inactive)

SMILES: CC1CCCCC1NC(=O)c1c(O)n2ccccc2nc1=O (configuration not stated)
- IC50 [5]: 4.79 µM (active)

SMILES: Cc1ccc(C(=O)N/C(=C\c2ccc(-c3ccccc3[N+](=O)[O-])o2)C(=O)NCCN(C)C)cc1
- AC50 [6]: 4.87 µM (active)

SMILES: COc1ccc(C(C(=O)NC2CCCCC2)N(C(=O)Cc2c[nH]c3ccccc23)c2ccc(NC(C)=O)cc2)cc1OC (configuration not stated)
- EC50 [3]: > 92.5 µM (inactive)
- EC50 (Mu-type opioid receptor): > 92.5 µM (inactive)
- EC50 [4]: > 92.5 µM (inactive)
- AC50 (Cytochrome P450 1A2): 25.1 µM (inconclusive)
- AC50 (Cytochrome P450 2C9): 12.6 µM (inconclusive)

SMILES: CC(NC(=O)c1ccc([N+](=O)[O-])o1)C12CC3CC(CC(C3)C1)C2 (configuration not stated)
- EC50 [7]: > 120 µM (not active)
- EC50 [8]: > 120 µM (not active)
- EC50 (H4): 13.8 µM (active)
- AC50 [1]: 4.68 µM (active)
- AC50 [6]: 15.1 µM (active)

SMILES: CC1=NC(C)(C)Cc2ccccc21.O=C(O)c1ccccc1O
- AC50 (Cytochrome P450 2C19): inconclusive
- IC50 [5]: 13.2 µM (active)

SMILES: Nc1nc2cc([N+](=O)[O-])ccc2[nH]1
- AC50 [9]: 7.07 µM (active)

SMILES: O=C(CSc1nnc(-c2ccc3c(c2)OCO3)o1)Nc1ncc(C(F)(F)F)cc1Cl
- EC50 [10]: 1.16 µM (active)
- EC50 (Streptokinase A): > 150 µM (not active)
- EC50 (Streptococcus): 20.4 µM (active)
- AC50 [1]: 5.84 µM (active)
- AC50 [2]: 28.5 µM (active)

SMILES: COC(=O)c1cc2c(n1S(=O)(=O)c1ccc(C)cc1)C(=O)C(=O)c1[nH]cc(C(=O)OCc3ccccc3)c1-2
- IC50 [11]: > 80 µM (inactive)
- EC50 [3]: > 92.4 µM (inactive)
- EC50 (Mu-type opioid receptor): > 92.4 µM (inactive)
- EC50 [4]: > 92.4 µM (inactive)
- AC50 [12]: 1.2 µM (active)
- AC50 [13]: 1.94 µM (active)
- AC50 [14]: 1.64 µM (active)

SMILES: CCN1CCN(c2ncnc3scc(-c4ccc(OC)cc4)c23)CC1
- IC50 [5]: 12.9 µM (active)

SMILES: Cc1cc(/C=N/NC(=O)C(=O)N2CCCC2)c(C)n1-c1cccc(Br)c1
- IC50 [5]: 13.8 µM (active)

SMILES: CC(/C=C/c1ccc(O)cc1)=N/O
- IC50 (Large T antigen): 8.82 µM (active)
- AC50 [9]: 1.54 µM (active)
- IC50 [15]: 10.5 µM (active)
